Where “and” joins values, the source holds several entries; their conditions need not be identical. Identical values can stand only once.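 In this assay, cells in 96-well plates receive the compound at five concentrations for 48 hours. Endpoints are linearly interpolated between the surrounding concentrations. GI50: concentration for 50% inhibition of growth. Definition used: TGI = concentration required for complete inhibition of growth.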
What was measured:
Experiment in all cases: NCI anticancer screen, dose series, 48 h
UACC-257 melanoma = test system: UACC-257 melanoma
TK-10 renal = test system: TK-10 renal
SF-295 CNS = test system: SF-295 CNS
SK-MEL-2 melanoma = test system: SK-MEL-2 melanoma
SNB-19 CNS = test system: SNB-19 CNS
A549 NSCLC = test system: A549 NSCLC
OVCAR-3 ovarian = test system: OVCAR-3 ovarian
T-47D breast = test system: T-47D breast
NCI/ADR-RES ovarian = test system: NCI/ADR-RES ovarian
SR leukemia = test system: SR leukemia

SMILES | TGI (UACC-257 melanoma) [µM] | TGI (TK-10 renal) [µM] | TGI (SF-295 CNS) [µM] | TGI (SK-MEL-2 melanoma) | TGI (SNB-19 CNS) [µM] | TGI (A549 NSCLC) [µM] | TGI (OVCAR-3 ovarian) [µM] | GI50 (UACC-257 melanoma) [µM] | GI50 (TK-10 renal) [µM] | GI50 (T-47D breast) [µM] | TGI (T-47D breast) [µM] | GI50 (SF-295 CNS) [µM] | GI50 (NCI/ADR-RES ovarian) | TGI (NCI/ADR-RES ovarian) [µM] | GI50 (SK-MEL-2 melanoma) | GI50 (SNB-19 CNS) [µM] | GI50 (A549 NSCLC) [µM] | GI50 (OVCAR-3 ovarian) | TGI (SR leukemia) | GI50 (SR leukemia)
CCc1cccc(C)c1NC(=O)CCc1nnc2s/c(=C\c3cccc4ccccc34)c(=O)n12 | > 100 | > 100 | > 100 | > 100 µM | > 100 | > 100 | > 100 | – | – | – | – | – | – | – | – | – | – | – | – | –
CCN1CCN(c2cc(C)nc(N(CCCNc3ccnc4cc(Cl)ccc34)Cc3ccc4c(c3)OCO4)n2)CC1 | 3.23 | 3.87 | 3.82 | 4.74 µM | 52 | > 100 | 6.09 | 1.72 | 1.84 | 2.26 | 4.88 | 1.91 | 3.22 µM | 58.5 | 2.14 µM | 4.16 | 3.67 | 2.35 µM | – | –
CCc1cccc(C)c1N1C(=O)C(=O)C(c2nc3ccccc3o2)C(=O)C1=O | > 100 | > 100 | > 100 | > 100 µM | > 100 | > 100 | > 100 | – | – | – | – | – | – | – | – | – | – | – | > 100 µM | –
O=S1(=O)N(Cc2ccccc2)[C@@H](Cc2ccccc2)[C@H](O)[C@H](O)[C@H](Cc2ccccc2)N1Cc1ccccc1 | 5.93 | 8.38 | 5.68 | 5.76 µM | > 20 | 7.62 | 6.07 | 2.89 | 3.77 | 3.95 | 10.2 | 2.62 | 3.4 µM | 8.58 | 2.8 µM | 4.69 | 2.99 | 2.9 µM | – | –
O=C(O)c1cc(=O)c2c([nH]c3ccccc32)s1 | > 100 | > 100 | > 100 | > 100 µM | > 100 | > 100 | > 100 | – | – | – | – | – | – | – | – | – | – | – | – | –
O=C(Nc1ccc(F)cc1F)c1cc(Cl)ccc1O | 2.68 | 31.8 | 3.16 | 4.93 µM | > 100 | 41 | 16.8 | 0.397 | 5.53 | 0.473 | 5.5 | 1.56 | 2.52 µM | 13.3 | 1.16 µM | 1.45 | 1.29 | 0.955 µM | – | –
O=c1c2cc(-c3ccccc3)sc2ncn1Cc1ccc(Cl)c(Cl)c1 | > 100 | – | 30.6 | 57.3 µM | > 100 | > 100 | 36.2 | 62.2 | – | 31.8 | > 100 | 12.3 | 19.5 µM | 59 | 12.2 µM | 26.8 | 18 | 15.8 µM | 17.9 µM | 5.14 µM
COC(=O)C1=C(CS(=O)c2ccc([N+](=O)[O-])cc2[N+](=O)[O-])C2C=CC1C2 (configuration not stated) | 92.2 | 51.7 | > 100 | > 100 µM | > 100 | > 100 | 66.8 | – | – | – | – | – | – | – | – | – | – | – | – | –
Cc1c(C(=O)/C=C/C=C/c2ccccc2)[n+](=O)c2ccccc2n1[O-] | 84.6 | > 100 | > 100 | 91.3 µM | > 100 | 82.3 | 83.3 | – | – | – | – | – | – | – | – | – | – | – | – | –
Cl/C(N=Nc1ccccc1)=N/Nc1ccccc1 | > 100 | > 100 | > 100 | > 100 µM | > 100 | > 100 | – | – | – | – | – | – | – | – | – | – | – | – | > 100 µM | –
O=c1nc(-c2ccccc2)cc(CC(O)c2ccc(Cl)c(Cl)c2)[nH]1 (configuration not stated) | > 100 | > 100 | > 100 | 65.3 µM | > 100 | > 100 | > 100 | – | – | – | – | – | – | – | – | – | – | – | – | –
CCOC(=O)CN(Cn1cncn1)Cn1cncn1 | 33 | > 100 | > 100 | > 100 µM | – | > 100 | 51.8 | – | – | – | – | – | – | – | – | – | – | – | – | –
C[Si](C)(C)C(CCCCSc1ccccc1)(Sc1ccccc1)Sc1ccccc1 | > 100 | > 100 | > 100 | > 100 µM | > 100 | > 100 | – | – | – | – | – | – | – | – | – | – | – | – | > 100 µM | –
CCc1ccccc1NC(=O)/C=C/c1ccccc1 | > 100 | > 100 | > 100 | > 100 µM | > 100 | > 100 | > 100 | – | – | – | > 100 | – | – | – | – | – | – | – | > 100 µM | –
COC(=O)C1C(=O)CC2CCCCC21 (configuration not stated) | > 100 | > 100 | – | > 100 µM | > 100 | > 100 | > 100 | – | – | – | – | – | – | – | – | – | – | – | > 100 µM | –
CC1CN(S(=O)(=O)c2oc(-c3ccc(Cl)cc3)nc2C#N)CC(C)O1 (configuration not stated) | 6.34 | 3.26 | 27.2 | 14.6 µM | 25 | 32.9 | 3.12 | 2.15 | 1.75 | 2.3 | 6.24 | 13.8 | 10.7 µM | 65.5 | 4.1 µM | 12.5 | 15.5 | 1.56 µM | – | –
COC(=O)C12CC(NC(=O)c3csc([C@@H](C[C@H](C(C)C)N(C)C(=O)[C@@H](NC(=O)[C@H]4CCCCN4C)C4CC4)OC(C)=O)n3)(C1)C2 | > 16.7 | > 16.7 | > 16.7 | > 16.7 µM | > 16.7 | > 16.7 | – | > 16.7 | 1.15 | – | – | 0.0422 | 4.69 µM | > 16.7 | 0.033 µM | 0.0581 | 0.101 | 0.0059 µM | > 16.7 µM | 0.00193 µM
Cc1nc2ccc(Br)cc2c(=O)n1-c1ccc(NC2OCC(O)C(O)C2O)cc1 (configuration not stated) | > 100 | > 100 | > 100 | 66.3 µM and > 100 µM | > 100 | > 100 | > 100 | > 100 | – | – | – | – | 41.9 µM and > 100 µM | > 100 | 25.6 µM and > 100 µM | – | – | 34.8 µM and > 100 µM | 59.7 µM and > 100 µM | 25 µM and 61 µM
O=C1OC(c2ccccc2)=N/C1=C\c1ccc(Oc2ccc(Cl)c(Cl)c2)cc1 | > 100 | > 100 | > 100 | > 100 µM | > 100 | > 100 | – | – | – | – | – | – | – | – | – | – | – | – | 57 µM | –

— PubChem BioAssay (NCI)
